# Measured values taken from patent publication US11306076B2, “Silibinin lipoic acid ester with hepatoprotective activity and a method of preparing the same” (XI'AN TAIKOMED PHARMACEUTICAL TECHNOLOGY CO., LTD., priority 2020, dated 2022).
# What was measured:
# [1] = DPPH radical scavenging activity assay; assay type: biochemical; conditions: for DPPH Clearance rate: n = 3
# Text: 2,2-Diphenyl-1-picryl hydrazyl (DPPH) is an organic compound composed of a stable organic radical. In the DPPH molecule, due to the presence of multiple electron-withdrawing —NO2 and large π bonds of the benzene ring, nitrogen free radical is stabilized. Its methanol solution is purple and has a maximum absorption peak at 517 nm. After the addition of an antioxidant, DPPH captures an electron to be paired with the free electron, and the purple fades and turns into a yellow substance. The absorption at 517 nm disappears, and the degree of fading is quantitatively related to the number of electrons it captures. Based on this principle, a spectrophotometer is used to detect the change of the absorbance of the DPPH radical and the sample solution, and the ability of the sample to provide hydrogen atoms and scavenge free radicals can be measured.
# Preparation of DPPH solution: measuring exact amount of 2,2-diphenyl-1-picryl hydrazyl (DPPH) and dissolving in toluene to prepare a 0.2 mmol/L DPPH solution, stored at 0° C. in dark.
# Preparation of test solution: Vc (vitamin C, positive control), compound of formula (I) (sample), silibinin (control) and lipoic acid (control). The sample solution was subjected to gradient dilution with toluene, and three sets of controls were separately dissolved in a test tube with a certain amount of toluene to prepare the same concentration gradient as the sample.
# Sample liquid absorbance measurement: Take 2 mL of sample solution (Table 2 Vc, B, C), add 2 mL of DPPH solution with concentration of 2×10^−4 mol/L, mix and react in the dark at room temperature for 30 min, adjust to zero with toluene, and measure at 517 nm. The absorbance Ai was simultaneously measured for the absorbance Aj of 2 mL of toluene mixed with 2 mL of the sample solution and the absorbance Ao of 2 mL of DPPH solution mixed with 2 mL of toluene (the experimental results are shown in Table 3).
# clearance rate (%)=[1−(Ai−Aj)/Ao]*100% Clearance calculation: […]
# [2] = tested on: Mice with Alcoholic Liver Injury; assay: Protective effect on alcoholic liver injury in mice (serum ALT, AST, TG); assay type: in vivo; conditions: 25 days, ethanol 3 g/kg/day
# Method: The compound of formula (I) was prepared by the method of example 7. In order to study its protective effect on alcoholic liver injury in mice, the following animal model was designed.
# Three-week-old 30-35 g SPF male mice were randomly divided into normal control group, model group, low-dose group, high-dose group and tiopronin positive control group after adaptive feeding for 3 days. The normal control group and model group were fed with basic feed every day; low dose group and high dose group were fed with basic diet every day and were given the compound of formula (I) of 10 mg/kg/day and 50 mg/kg/day, respectively; tiopronin positive control group was fed with basic feed and 50 mg/kg/day tiopronin. Ethanol 3 g/kg/day (0.01 mL/g) was given to the model group, low dose group, high dose group and tiopronin positive control group. The normal control group was given distilled water of the same volume. After 25 days, fasting for 2 hours after the last administration, glutamic pyruvic transaminase (ALT), glutamic oxaloacetic transaminase (AST) and triglyceride (TG) were measured in serum by decapitation.
SMILES,DPPH Clearance rate ([1]; 1.76 ppm) [%],DPPH Clearance rate ([1]; 8.80 ppm) [%],DPPH Clearance rate ([1]; 21.12 ppm) [%],DPPH Clearance rate ([1]; 42.24 ppm) [%],DPPH Clearance rate ([1]; 79.20 ppm) [%],DPPH Clearance rate ([1]; 112.64 ppm) [%],DPPH Clearance rate ([1]; 281.60 ppm) [%],DPPH Clearance rate ([1]; 492.80 ppm) [%],DPPH Clearance rate ([1]; 792.00 ppm) [%],DPPH Clearance rate ([1]; 915.20 ppm) [%],ALT ([2]; 10 mg/kg/day) [U/L],AST ([2]; 10 mg/kg/day) [U/L],TG ([2]; 10 mg/kg/day) [mmol/L],ALT ([2]; 50 mg/kg/day) [U/L],AST ([2]; 50 mg/kg/day) [U/L],TG ([2]; 50 mg/kg/day) [mmol/L],"scavenging ability compared with silibinin (B) and lipoic acid (C) alone ([1]; DPPH free radicals, at the same concentration)",scavenging ability compared with the positive control Vc group ([1]; DPPH radical),highest scavenging rate of DPPH radical ([1]; in the determined concentration range) [%]
"O=C(O)CCCCC1CCSS1 (centres unmarked) [C, Lipoic acid]",7.27,8.52,16.42,23.54,36.45,41.58,54.23,67.82,72.01,73.69,,,,,,,,,
"COc1cc(C2Oc3cc([C@H]4Oc5cc(O)cc(O)c5C(=O)[C@@H]4O)ccc3OC2COC(=O)CCCCC2CCSS2)ccc1O (stereo partly drawn) [Compound of Formula (I), (3-(4-hydroxy-3-methoxyphenyl)-6-((2R,3R)-3,5,7-trihydroxy-4-oxochroman-2-yl)-2,3-dihydrobenzo[b][1,4]dioxin-2-yl)methyl 5-(1,2-dithiolan-3-yl)pentanoate]",12.28,19.80,32.16,43.55,69.42,78.95,81.21,86.70,90.06,93.52,61.72 ± 10.37,139.84 ± 18.95,0.902 ± 0.19,57.21 ± 2.93,134.56 ± 6.57,0.873 ± 0.35,better,slightly weaker,93.52
"CC(S)C(=O)NCC(=O)O (centres unmarked) [Tiopronin, tiopronin, reference compound]",,,,,,,,,,,,,,65.32 ± 8.79,141.37 ± 18.75,1.156 ± 0.33,,,
